The values below come from patent US20200270294A1, “IMMUNOSTIMULATORY ADJUVANTS AND USES THEREOF” (TURUN YLIOPISTO, priority 2015, published 2020).

In assay [1] the test system is birch-induced production of IL-4 in PBMC. Description: Birch allergen (Bet v) induced IL-4 production in PBMC cultures of birch allergic subjects. Type of assay: cell-based, human. The note with it: for in vitro activity (PBMC model): screen of oligovalent β-(1→2) mannosides; for suppression of birch-induced production of IL-4: Bet v 50 μg/ml, 72 h. The text has this: (§1) During pollen season, 14 adult birch allergic subjects with allergic rhinoconjunctivitis (12 females and two males) were enrolled in the study (mean age 42.5 years, SD 12.4 years; mean birch-specific IgE (Immunocap, Thermo Fisher Scientific Phadia, Uppsala, Sweden) 36.1 kU/1, SD 31.5 kU/1). They were selected for the study from an earlier cohort based on good birch induced IL-4 responses during pollen season. All samples were taken after informed consent. The study was approved by the local ethics committee.
Peripheral blood mononuclear cells (PBMC) were isolated by Ficoll-Paque density gradient centrifugation (Ficoll-Paque PLUS, GE Healthcare BioSciences AB, Uppsala, Sweden) from heparinized blood samples from study subjects during pollen season. The PBMC were washed twice with Hanks' balanced salt solution (HBSS) buffered with NaHCO3 (pH 7.4) and resuspended in RPMI-1640 culture medium (Invitrogen Co., Carlsbad, Calif., USA) supplemented with 5% autologous serum, 2.5 mM L-glutamine (Sigma-Aldrich Co., St. Louis, Mo.) and 100 μg/ml gentamycin sulfate (Biological Industries Ltd., Kibbutz Beit Haemek, Israel) and applied on 48-well flat-bottomed cell culture plates (Costar, Corning Inc., New York, United States) at a density of […]. Cells were co-cultured in the presence of birch allergen (50 μg/ml, Betula verrucosa, Bet v, Aquagen, ALK-Abellò A/S, Horsholm, Denmark) and compounds 1, 2, 3 and MPL with concentrations 1, 10 and 100 μg/ml and adjuvant CpG-ODN with concentrations 2, 20 and 200 μg/ml to achieve equal molarities. Medium alone served as an unstimulated control. All incubations were performed at +37° C. in humidified atmosphere with 5% CO2. Supernatants from cultures performed in duplicate were collected 72 h after beginning of the stimulation and stored at −70° C.
The cytokines IL-4 and TNF in supernatants were measured with highsensitivity human cytokine Lincoplex kits (LINCO Research, St. Charles, Mo., USA). The assays were performed in accordance with the manufacturer's protocol by employing Luminex technology.
(§2) Wilcoxon's Signed Rank test was used to test statistical significance in PBMC experiments. Single mice groups were compared by the nonparametric Mann-Whitney U-test using GraphPad Prism software (v.5, GraphPad Software Inc., La Jolla, Calif., USA). Data are expressed as mean±SEM and P-values of <0.05 are considered statistically significant.

Assay [2] deals with production of pro-inflammatory cytokine TNF in PBMC. Kind of assay: TNF production in PBMC cultures stimulated with Bet v. Type of assay: cell-based, human. The note with it: 100 μg/ml (also printed 100 l/ml), Bet v 50 μg/ml, 72 h.
From the text: as §1
Peripheral blood mononuclear cells (PBMC) were isolated by Ficoll-Paque density gradient centrifugation (Ficoll-Paque PLUS, GE Healthcare BioSciences AB, Uppsala, Sweden) from heparinized blood samples from study subjects during pollen season. […]
The cytokines IL-4 and TNF in supernatants were measured with highsensitivity human cytokine Lincoplex kits (LINCO Research, St. Charles, Mo., USA). […]
Wilcoxon's Signed Rank test was used to test statistical significance in PBMC experiments. […] Data are expressed as mean±SEM and P-values of <0.05 are considered statistically significant.

In assay [3] the test system is B16 melanoma cells. Kind of assay: In vivo model of cancer immunotherapy: B16 melanoma tumor growth in mice. Further details: species or system C57BL/6 mice. The protocol:
as §2
3*10^6 B16 melanoma cells in 100 μl PBS were injected s.c. into the right flank of seven-week-old female C57BL/6 mice. Compound 3 was given i.p. 50 μg/injection in 200 μl PBS five times at 3-day intervals, starting on day 0. Each treatment group contained 10 mice. Tumor volumes were calculated using the formula 0.5*length*width^2. Animals were sacrificed when tumor volumes reached 800 mm^3. Animal experimentations were made following the procedures accepted by Eteli-Suomen Aluehallintavirasto (permission ESAVI/480/Apr. 10.2007/2016).

Setting [4] is: 10 μg/ml adjuvant, PBMC of 14 birch allergic patients.
The mark [5] stands for this setting: 100 g/ml or 100 l/ml as printed (highest concentration, b131: 100 μg/ml), PBMC.

`CC(=O)OCC1O[C@H](OCCn2cc(COCC(COCc3cn(CCO[C@H]4OC(COC(C)=O)[C@@H](OC(C)=O)[C@H](OC(C)=O)C4O[C@@H]4OC(COC(C)=O)[C@@H](OC(C)=O)[C@H](OC(C)=O)C4OC(C)=O)nn3)OCc3cn(CCO[C@H]4OC(COC(C)=O)[C@@H](OC(C)=O)[C@H](OC(C)=O)C4O[C@@H]4OC(COC(C)=O)[C@@H](OC(C)=O)[C@H](OC(C)=O)C4OC(C)=O)nn3)nn2)C(O[C@@H]2OC(COC(C)=O)[C@@H](OC(C)=O)[C@H](OC(C)=O)C2OC(C)=O)[C@@H](OC(C)=O)[C@@H]1OC(C)=O` (stereo partly drawn) [compound 1, 1,2,3-tris[1-(3-{0-(2,3,4,6-tetra-O-acetyl-β-D-mannopyranosyl)-(1→2)-3,4,6-tri-O-acetyl-α-D-mannopyranosyloxy}ethyl)-4-methyloxy-1,2,3-triazolyl]propane]: the “in vitro activity (PBMC model)” value in assay [1] is “promising in vitro activities”.

On to `CC(=O)OC[C@H]1O[C@@H](O[C@@H]2[C@@H](OCCCn3cc(COCC(COCc4cn(CCCO[C@H]5O[C@H](COC(C)=O)[C@@H](OC(C)=O)[C@H](OC(C)=O)[C@@H]5O[C@@H]5O[C@H](COC(C)=O)[C@@H](OC(C)=O)[C@H](OC(C)=O)[C@@H]5OC(C)=O)nn4)OCc4cn(CCCO[C@H]5O[C@H](COC(C)=O)[C@@H](OC(C)=O)[C@H](OC(C)=O)[C@@H]5O[C@@H]5O[C@H](COC(C)=O)[C@@H](OC(C)=O)[C@H](OC(C)=O)[C@@H]5OC(C)=O)nn4)nn3)O[C@H](COC(C)=O)[C@@H](OC(C)=O)[C@@H]2OC(C)=O)[C@@H](OC(C)=O)[C@@H](OC(C)=O)[C@@H]1OC(C)=O` (stereo partly drawn) [compound 2, 1,2,3-tris[1-(3-{O-(2,3,4,6-tetra-O-acetyl-β-D-mannopyranosyl)-(1-+2)-3,4,6-tri-O-acetyl-α-D-mannopyranosyloxy}propyl)-4-methyloxy-1,2,3-triazolyl]propane], for which the “suppression of birch-induced production of IL-4” value in assay [1] (setting [4]) and in assay [1] (setting [5]) was “significant suppression” throughout. Further, in assay [1], the “in vitro activity (PBMC model)” value is recorded as “promising in vitro activities”. In assay [2], the “production of pro-inflammatory cytokine TNF” value is reported as “Significantly increased production”.

In the case of `CC(=O)OCC1O[C@@H](OC2C(OC(C)=O)[C@H](OC(C)=O)C(COC(C)=O)O[C@@H]2OCCOCCOCCn2cc(COCC(COCc3cn(CCOCCOCCO[C@H]4OC(COC(C)=O)[C@@H](OC(C)=O)C(OC(C)=O)C4O[C@@H]4OC(COC(C)=O)[C@@H](OC(C)=O)C(OC(C)=O)C4OC(C)=O)nn3)OCc3cn(CCOCCOCCO[C@H]4OC(COC(C)=O)[C@@H](OC(C)=O)C(OC(C)=O)C4O[C@@H]4OC(COC(C)=O)[C@@H](OC(C)=O)C(OC(C)=O)C4OC(C)=O)nn3)nn2)C(OC(C)=O)C(OC(C)=O)[C@@H]1OC(C)=O` (stereo partly drawn) [compound 3, 1,2,3-tris(1-{2-[2-(2-[O-(2,3,4,6-tetra-O-acetyl-β-D-mannopyranosyl)-(1→2)-3,4,6-tri-O-acetyl-α-D-mannopyranosyloxy]ethoxy)-ethoxy]ethyl}-4-methyloxy-1,2,3-triazolyl)propane], the “suppression of birch-induced production of IL-4” value in assay [1] (setting [4]) and in assay [1] (setting [5]) was “significant suppression” throughout. Further, the “in vitro activity (PBMC model)” value in assay [1] is “promising in vitro activities”. For the same molecule, the “production of pro-inflammatory cytokine TNF” value in assay [2] is “Significantly increased production”. In assay [3] (Day 9, i.p. 50 μg/injection five times at 3-day intervals), the “tumor volume as compared to control mice” value is recorded as “statistically significantly smaller”. Further, in assay [3] (i.p. 50 μg/injection five times at 3-day intervals, starting on day 0), the “start of tumor growth as compared to control” value was “started later”. In assay [3] (i.p. 50 μg/injection five times at 3-day intervals, until Day 9), the “tumor growth until Day 9 as compared to control” value was “slower”.
